Assay results: patent US6372769B1 (priority 1999, dated 2002)
Where “and” joins values, the source holds several entries; their conditions need not be identical. Identical values can stand only once.

Tests used:
Settings in all cases: in vivo
[1] = system: Erysiphe graminis f. sp. tritici
[2] = system: Puccinia recondita f. sp. tritici
Sphaerotheca fulginea = system: Sphaerotheca fulginea
Pyricularia oryzae = system: Pyricularia oryzae
Septoria nodorum = system: Septoria nodorum
Plasmopara viticola = system: Plasmopara viticola

| SMILES | percent disease control, Wheat Powdery Mildew (WPM) [1] | percent disease control, Wheat Leaf Rust (WLR) [2] | percent disease control, Cucumber Powdery Mildew (CPM) (Sphaerotheca fulginea) | plant damage (necrosis / death of plant) in RB test (Pyricularia oryzae) | plant damage (necrosis / death of plant) in SNW test (Septoria nodorum) | percent disease control, Grape Downy Mildew (GDM) (Plasmopara viticola) | percent disease control, Rice Blast (RB) (Pyricularia oryzae) | percent disease control, Septoria on Wheat (SNW) (Septoria nodorum) |
| --- | --- | --- | --- | --- | --- | --- | --- | --- |
| O=C(Nc1c(Br)cc(Br)cc1Br)c1sc(C(F)(F)F)nc1C(F)(F)F [Compound 3] | 85% and 80% and 50% | 99% and 90% and 85% | – | – | – | – | – | – |
| O=C(Nc1cc(F)c(F)c(F)c1F)c1sc(C(F)(F)F)nc1C(F)(F)F [Compound 4] | – | – | 0% and 0/5% | 50/5 | —/5 | – | – | – |
| O=C(Nc1c(Cl)c(Cl)c(Cl)c(Cl)c1Cl)c1sc(C(F)(F)F)nc1C(F)(F)F [Compound 2] | 80% and 75% and 50% | 100% and 99% and 90% | – | – | – | – | – | – |
| O=C(Nc1c(Br)cc(OC(F)(F)F)cc1Br)c1sc(C(F)(F)F)nc1C(F)(F)F [Compound 5] | 95% and 80% | 100% and 95% | – | – | – | 0% | 95% and 90% | 80% and 75% |
